Experimental data taken from ChEMBL document CHEMBL1201862, “PubChem BioAssay data set” (2004).
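Method: 48-hour compound exposure of cells in 96-well plates, five concentrations, linear interpolation of endpoints. At the GI50, growth is halved.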 Active and inactive are the calls of the source. Rule as the data show it: active = GI50 up to about 1.1 µM and inactive = higher.

Columns and labels:
Test in all cases: NCI-60 cell line screen, 48 h
[1] = test system: Malme-3M
[2] = test system: COLO 205
[3] = test system: SN12C
[4] = test system: SK-MEL-2
[5] = test system: OVCAR-8
[6] = test system: K562
[7] = test system: SF-539
[8] = test system: SK-OV-3
[9] = test system: HCT-116
[10] = test system: NCI-H460
[11] = test system: OVCAR-4
[12] = test system: 786-0
[13] = test system: RXF 393
[14] = test system: HCC 2998
[15] = test system: SR

Measured: GI50

CCN(CC)c1ccc(C(=O)c2ccccc2C(=O)O)c(O)c1
inactive: [1] > 100 µM | [2] > 100 µM | [3] > 100 µM | [4] > 100 µM | [5] > 100 µM | [6] > 100 µM | [7] > 100 µM | [8] > 100 µM | [9] > 100 µM | [10] > 100 µM | [11] > 100 µM | [12] > 100 µM | [13] > 100 µM

CCCCOC(=O)CNC(=O)OCCCCC#CC#CCCCCOC(=O)NCC(=O)OCCCC
inactive: [1] > 100 µM | [2] > 100 µM | [3] > 100 µM | [14] > 100 µM | [5] > 100 µM | [6] > 100 µM | [7] > 100 µM | [8] > 100 µM | [15] > 100 µM | [9] > 100 µM | [10] > 100 µM | [11] > 100 µM | [12] > 100 µM

Nc1nc(Cl)cc(NCCCCCCNc2cc(Cl)nc(N)n2)n1
inactive: [2] > 100 µM | [3] > 100 µM | [4] 87.9 µM | [14] > 100 µM | [5] > 100 µM | [6] 28.6 µM | [7] > 100 µM | [8] > 100 µM | [15] 42 µM | [9] 30.7 µM | [10] > 100 µM | [11] 88.9 µM | [12] > 100 µM | [13] > 100 µM

O=C(Nc1nccs1)c1cc(C2=CC=CC([N+](=O)[O-])C=C2)nc(S)n1 (configuration not stated)
inactive: [1] > 100 µM | [2] > 100 µM | [3] > 100 µM | [4] > 100 µM | [14] > 100 µM | [5] > 100 µM | [6] > 100 µM | [7] > 100 µM | [8] > 100 µM | [15] > 100 µM | [9] > 100 µM | [10] > 100 µM | [12] > 100 µM | [13] > 100 µM

O=C(CC(=O)C1CCOC1=O)C(=O)Nc1ccc(Cl)cc1Cl (configuration not stated)
inactive: [1] > 100 µM | [2] > 100 µM | [3] > 100 µM | [4] > 100 µM | [14] > 100 µM | [5] > 100 µM | [6] > 100 µM | [7] > 100 µM | [8] > 100 µM | [9] > 100 µM | [10] > 100 µM | [11] > 100 µM | [12] > 100 µM | [13] > 100 µM

COc1ccccc1/C=C1\CCC(CCN2CCOCC2)C1=O (configuration not stated)
inactive: [1] > 100 µM | [3] > 100 µM | [4] > 100 µM | [14] 66.1 µM | [5] > 100 µM | [6] 41.1 µM | [7] > 100 µM | [15] > 100 µM | [9] 70.8 µM | [10] 90.8 µM | [11] 37.8 µM | [12] > 100 µM | [13] 59.8 µM

CCCNCCCC(NC(C)=O)C(=O)NCc1ccccc1 (configuration not stated)
inactive: [1] > 100 µM | [2] > 100 µM | [3] > 100 µM | [4] > 100 µM | [14] > 100 µM | [5] > 100 µM | [6] > 100 µM | [7] > 100 µM | [8] > 100 µM | [9] > 100 µM | [10] > 100 µM | [11] > 100 µM | [12] > 100 µM | [13] > 100 µM

O=C(Nc1ccc(Cl)c(Cl)c1)C(=O)C(C(=O)c1ccccc1-c1ccccc1)C1OC(=O)c2ccccc21 (configuration not stated)
inactive: [1] 8.55 µM | [2] 15.6 µM | [4] 11.4 µM | [14] 14.5 µM | [5] 17.4 µM | [6] 21.5 µM | [7] 10.1 µM | [8] 28.5 µM | [9] 10.5 µM | [10] 19.9 µM | [12] 11.2 µM | [13] 8.15 µM

C#Cc1cc(CN(CC(=O)OC(C)(C)C)CC(=O)OC(C)(C)C)nc(CN(CC(=O)OC(C)(C)C)CC(=O)OC(C)(C)C)c1
inactive: [1] 4.17 µM | [2] 7.36 µM | [3] 6.75 µM | [4] 2.28 µM | [14] 4.31 µM | [5] 5.24 µM | [6] 4.6 µM | [7] 15.2 µM | [8] 6.55 µM | [10] 7.23 µM | [11] 6.19 µM | [12] 7.06 µM | [13] 2.84 µM

Cc1cc(NS(=O)(=O)c2ccc(NC(=O)c3cccc4c(Nc5ccc(S(=O)(=O)Nc6cc(C)on6)cc5)c5ccccc5nc34)cc2)no1
inactive: [1] > 100 µM | [2] 62.4 µM | [3] 39.4 µM | [4] 30.3 µM | [5] 70.3 µM | [6] 36.6 µM | [7] 27.4 µM | [8] > 100 µM | [10] > 100 µM | [11] 17.2 µM | [12] 33 µM | [13] 25.8 µM

Cc1cc(C)nc(NS(=O)(=O)c2ccc(Nc3c4ccccc4nc4c(C(=O)Nc5ccc(S(=O)(=O)N=C(N)N)cc5)ccc(Cl)c34)cc2)n1
inactive: [1] 33.6 µM | [2] 55 µM | [3] 29.8 µM | [14] 20 µM | [5] 17.5 µM | [6] 24.2 µM | [7] 19.3 µM | [8] 22.9 µM | [15] 25.3 µM | [9] 21.9 µM | [10] 53.1 µM | [11] 23.9 µM | [12] 38.9 µM | [13] 18.2 µM

Cc1cc2c(c3c1c1ccccc1n3C)C(=O)c1ccccc1C2=O
inactive: [1] > 100 µM | [2] > 100 µM | [3] > 100 µM | [4] > 100 µM | [14] > 100 µM | [5] > 100 µM | [6] 48 µM | [7] > 100 µM | [9] > 100 µM | [10] > 100 µM | [11] > 100 µM | [12] > 100 µM | [13] > 100 µM

CC1=NN(C(=O)c2ccc(Cl)cc2)C(=O)/C1=C/c1ccco1
inactive: [1] > 100 µM | [2] > 100 µM | [3] > 100 µM | [4] > 100 µM | [14] > 100 µM | [5] > 100 µM | [6] > 100 µM | [7] > 100 µM | [8] > 100 µM | [9] > 100 µM | [10] > 100 µM | [11] > 100 µM | [12] > 100 µM | [13] > 100 µM

Cc1ccc(NC(=O)C2C(=O)C(=O)N(c3ccc(C)cc3)C2=O)cc1 (configuration not stated)
inactive: [1] > 100 µM | [2] > 100 µM | [3] > 100 µM | [4] > 100 µM | [14] > 100 µM | [5] > 100 µM | [6] > 100 µM | [7] > 100 µM | [15] > 100 µM | [9] > 100 µM | [10] > 100 µM | [11] > 100 µM | [12] > 100 µM | [13] 72.1 µM

Cc1ccccc1CN1CC=c2ccccc2=N1
inactive: [1] > 100 µM | [2] > 100 µM | [3] > 100 µM | [4] > 100 µM | [14] > 100 µM | [5] > 100 µM | [6] > 100 µM | [7] > 100 µM | [8] > 100 µM | [9] > 10 µM | [10] > 100 µM | [11] > 100 µM | [12] > 100 µM

CC(C)(C)N/N=N/c1cn(C2OC(CO)C(O)C2O)c(=O)[nH]c1=O (configuration not stated)
inactive: [1] > 100 µM | [2] 37.2 µM | [3] > 100 µM | [4] > 100 µM | [14] > 100 µM | [5] > 100 µM | [6] 40.7 µM | [8] > 100 µM | [15] 20.8 µM | [9] 40.7 µM | [10] 64.9 µM | [12] > 100 µM | [13] 61.4 µM

CCCCCCCCCCCCCS(=O)(=O)O
inactive: [1] > 100 µM | [2] > 100 µM | [3] > 100 µM | [4] > 100 µM | [14] > 100 µM | [5] > 100 µM | [7] > 100 µM | [9] > 100 µM | [10] > 100 µM | [11] > 100 µM | [12] > 100 µM | [13] > 100 µM

O=C1C=CC(=CC=C2C=CN(CCCCCCCCCCC(=O)NCCCCCCCCCCCC(=O)O)C=C2)C=C1
inactive: [1] > 100 µM | [2] > 100 µM | [3] > 100 µM | [14] > 100 µM | [5] > 100 µM | [6] > 100 µM | [7] > 100 µM | [8] > 100 µM | [15] > 100 µM | [9] > 100 µM | [10] > 100 µM | [11] > 100 µM | [12] > 100 µM | [13] > 100 µM

CN1CCS(=O)(=O)NC(Cc2ccccc2)C(=O)N2CCCC2C1=O (configuration not stated)
inactive: [1] > 100 µM | [2] > 100 µM | [3] > 100 µM | [4] > 100 µM | [14] > 100 µM | [5] > 100 µM | [6] > 100 µM | [7] > 100 µM | [8] > 100 µM | [9] > 100 µM | [11] > 100 µM | [12] > 100 µM

COc1cc(CCc2ccc(OC(C)=O)cc2)cc(OC)c1OC
inactive: [1] > 100 µM | [2] > 100 µM | [3] > 100 µM | [5] > 100 µM | [6] 63.8 µM | [7] > 100 µM | [9] > 100 µM | [10] > 100 µM | [11] > 100 µM | [12] > 100 µM | [13] > 100 µM
